Data: patent US20070270337A1, “Pharmaceutical Compositions for Preventing or Treating Th1-Mediated Immune Diseases” (Daiichi Asubio Pharma Co., Ltd., priority 2003, published 2007)

Tests used:
[1] = tested on: naive T cells co-cultured with dendritic cells; assay: Intracellular cytokine expression in naive T cells (dendritic cell-driven Th1/Th2 polarization, flow cytometry); format: cell-based, human; conditions: dendritic cells pretreated with LPS (1 μg/mL) + ANP (10^-7 M) versus LPS alone; Sample #1 and #2
Protocol: (§1) For experiments, the leukocyte layer (buffy coats) of peripheral blood from healthy volunteers (provided by Kyoto Red Cross Blood Center, Japan) was used. After the peripheral blood monocyte fraction was separated by density gradient centrifugation using Ficoll-Paque, the fraction was applied to a magnetic bead column using MACS CD14 or cultured in cell culture flasks at 37° C. for 1 hour to select the adhered cells, thereby separating monocytes. Immature dendritic cells were obtained by culturing the monocytes (2×10^5 cells/ml) for 7 days at 37° C. in the presence of 10% fetal bovine serum, 50 ng/mL human GM-CSF and 20 ng/mL human IL-4.
Dendritic cells were activated by being pre-incubated for 24 hours with LPS (1 μg/mL) in the presence or absence of ANP (10^−7 M) and then irradiated (30 Gy) to eliminate their proliferation ability. These dendritic cells (1×10^5 cells/well) and naive T cells separated from cord blood (1×10^6 cells/well) were co-cultured for 6 days. After the T cells were grown in the presence of IL-2 (50 U/mL) for an additional 8 days, the T cells were collected and stimulated for 4 hours with 50 ng/mL phorbol ester (PMA) and 500 ng/mL ionomycin. Two hours before completion of the incubation, Brefeldin A (10 μg/mL) was added. […] IFN-γ positive cells were determined as Th1-type cells, while IL-4 positive cells were determined as Th2-type cells.

[2] = tested on: dendritic cells; assay: Cytokine production from dendritic cells (ELISA); format: cell-based, human; conditions: for IL-10 production from dendritic cells / IL-12 production from dendritic cells / TNFα production from dendritic cells: LPS (1 μg/mL) stimulated, 24 hours, ANP 10^-8 to 10^-6 M, CNP 10^-6 M
Protocol: as §1
Dendritic cells were incubated for 24 hours with LPS (1 μg/mL) in the presence or absence of ANP (10^−8 M to 10^−6 M) or CNP (10^−6 M), and the levels of IL-12, IL-10 and TNFα in each culture supernatant were measured by the ELISA method.

[3] = tested on: naive CD4+ T cells cultured with dendritic cells; assay: T cell proliferation induced by activated dendritic cells ([3H]-thymidine uptake); format: cell-based, human
Protocol: as §1
Naive T cells (naive CD4^+ T cells) were isolated from the monocyte fraction of umbilical cord blood using magnetic beads for MACS CD4^+ T cell isolation. Dendritic cells were activated by being cultured for 24 hours with lipopolysaccharide (LPS, 1 μg/mL) in the presence or absence of ANP (10^−7 M). The cells were washed and irradiated (30 Gy) to eliminate their proliferation ability, followed by culturing together with the naive T cells (1×10^5 cells/well) for 6 days. The T cells were evaluated for their proliferation ability by 8 hour uptake of [methyl-^3H]-thymidine (0.5 μCi/well).

[4] = tested on: immature dendritic cells; assay: cGMP producing activity in immature dendritic cells; format: cell-based, human; conditions: 10^-12 to 10^-6 M, 15 minutes
Protocol: as §1
(§2) After the cells (1×10^5 cells/sample) were incubated in 500 μL of 10 mM HEPES, 0.5 mM 3-isobutyl-1-methylxanthine and 1 μM phospholamidon at 37° C. for 10 minutes, ANP or CNP was added to a final concentration of 10^−12 to 10^−6 M and incubation was continued for an additional 15 minutes. After the cells were washed and lysed, the intracellular cGMP concentration was measured by the ELISA method.

[5] = tested on: human monocytes; assay: cGMP producing activity in monocytes; format: cell-based; conditions: 10^-12 to 10^-6 M, 15 minutes
Protocol: as §1, §2

Row | Compound | IFN-γ-producing cells (Th1-type) [1] | IL-4-producing cells (Th2-type) [1] | IL-10 production from dendritic cells [2] | IL-12 production from dendritic cells [2] | TNFα production from dendritic cells [2] | IL-12, TNF-α and IL-10 production from dendritic cells ([2]; LPS-unstimulated dendritic cells, ANP alone) | T cell proliferation induced by LPS-treated dendritic cells ([3]; ANP (10^-7 M) added simultaneously with LPS (1 μg/mL)) | proliferation of naive T cells ([3]; dendritic cells treated with ANP (10^-7 M) alone, without LPS) | intracellular cGMP levels [4] | intracellular cGMP levels [5]
1 | CC[C@H](C)[C@@H]1NC(=O)[C@H](CCCNC(=N)N)NC(=O)[C@H](CC(=O)O)NC(=O)[C@H](CCSC)NC(=O)[C@H](CCCNC(=N)N)NC(=O)CNC(=O)CNC(=O)[C@H](Cc2ccccc2)NC(=O)[C@@H](NC(=O)[C@H](CO)NC(=O)[C@H](CO)NC(=O)[C@H](CCCNC(=N)N)NC(=O)[C@H](CCCNC(=N)N)NC(=O)[C@H](CC(C)C)NC(=O)[C@@H](N)CO)CSSC[C@@H](C(=O)N[C@@H](CC(N)=O)C(=O)N[C@@H](CO)C(=O)N[C@@H](Cc2ccccc2)C(=O)N[C@@H](CCCNC(=N)N)C(=O)N[C@@H](Cc2ccc(O)cc2)C(=O)O)NC(=O)CNC(=O)[C@H](CC(C)C)NC(=O)CNC(=O)[C@H](CO)NC(=O)[C@H](CCC(N)=O)NC(=O)[C@H](C)NC(=O)CNC1=O [ANP, atrial natriuretic peptide] | decrease in IFN-γ-producing cells | increase in IL-4-producing cells | enhance IL-10 production | decrease both IL-12 and TNFα levels in a concentration-dependent manner | decrease both IL-12 and TNFα levels in a concentration-dependent manner | no effect on these cytokine productions | almost completely inhibited | no effect on proliferation of naive T cells | increase intracellular cGMP levels in dendritic cells in a concentration-dependent manner from a concentration as low as 10^−12 M | little increase in cGMP levels at all concentrations
2 | C-type natriuretic peptide [CNP, reference compound] |  |  | no effect on cytokine expression | no effect on cytokine expression | no effect on cytokine expression |  |  |  | no effect on intracellular cGMP levels | no effect on intracellular cGMP levels
